Results taken from ChEMBL document CHEMBL1629422, “Synthesis and antimicrobial evaluation of some fused heterocyclic [1,2,4]triazolo[3,4-b][1,3,4]thiadiazole derivatives” (2010).
In brackets after ≈: the same amount, converted by molar mass.

Columns and labels:
Type in all cases: functional
Enterococcus faecalis = assay: Antimicrobial activity against Enterococcus faecalis ATCC 29212 after18 to 20 hrs by broth dilution method
Enterobacter cloacae = assay: Antimicrobial activity against Enterobacter cloacae ATCC 49141 after18 to 20 hrs by broth dilution method
Staphylococcus aureus = assay: Antimicrobial activity against Staphylococcus aureus ATCC 25923 after18 to 20 hrs by broth dilution method
Escherichia coli = assay: Antimicrobial activity against Escherichia coli ATCC 25922 after18 to 20 hrs by broth dilution method
Bacillus cereus = assay: Antimicrobial activity against Bacillus cereus ATCC 13061 after18 to 20 hrs by broth dilution method
Pseudomonas aeruginosa = assay: Antimicrobial activity against Pseudomonas aeruginosa ATCC 27853 after18 to 20 hrs by broth dilution method
[1] = system: Staphylococcus epidermidis; assay: Antimicrobial activity against Staphylococcus epidermidis ATCC 14990 after18 to 20 hrs by broth dilution method
Citrobacter freundii = assay: Antimicrobial activity against Citrobacter freundii ATCC 8090 after18 to 20 hrs by broth dilution method
Acinetobacter baumannii = assay: Antimicrobial activity against Acinetobacter baumannii ATCC 19606 after18 to 20 hrs by broth dilution method
Candida albicans = assay: Antimicrobial activity against Candida albicans ATCC 90028 after 48 hrs by broth dilution method; settings: ATCC 90028, 48 h

Row | MIC (Enterococcus faecalis) [µg/mL] | MIC (Enterobacter cloacae) [µg/mL] | MIC (Staphylococcus aureus) [µg/mL] | MIC (Escherichia coli) [µg/mL] | MIC (Bacillus cereus) [µg/mL] | MIC (Pseudomonas aeruginosa) [µg/mL] | MIC [1] [µg/mL] | MIC (Citrobacter freundii) [µg/mL] | MIC (Acinetobacter baumannii) [µg/mL] | MIC (Candida albicans) [µg/mL] | SMILES
1 | 64 (≈ 120 µM) | 512 (≈ 963 µM) | 128 (≈ 241 µM) | 128 (≈ 241 µM) | 256 (≈ 481 µM) | 512 (≈ 963 µM) | 128 (≈ 241 µM) | 512 (≈ 963 µM) | 256 (≈ 481 µM) | 1020 (≈ 1930 µM) | O=S(=O)(c1ccc(Br)cc1)c1ccc(-c2nnc3sc(-c4ccc(Cl)cc4)nn23)cc1
2 | 1020 (≈ 2000 µM) | 512 (≈ 999 µM) | 1020 (≈ 2000 µM) | 256 (≈ 500 µM) | 1020 (≈ 2000 µM) | 512 (≈ 999 µM) | 512 (≈ 999 µM) | 1020 (≈ 2000 µM) | 512 (≈ 999 µM) | 1020 (≈ 2000 µM) | O=S(=O)(c1ccccc1)c1ccc(-c2nnc3sc(Nc4ccc(Br)cc4)nn23)cc1
3 | 512 (≈ 973 µM) | 1020 (≈ 1950 µM) | 512 (≈ 973 µM) | 256 (≈ 486 µM) | 256 (≈ 486 µM) | 128 (≈ 243 µM) | 1020 (≈ 1950 µM) | 1020 (≈ 1950 µM) | 1020 (≈ 1950 µM) | 512 (≈ 973 µM) | NCc1ccc(-c2nn3c(-c4ccc(S(=O)(=O)c5ccc(Br)cc5)cc4)nnc3s2)cc1
4 | 512 (≈ 999 µM) | 1020 (≈ 2000 µM) | 256 (≈ 500 µM) | 256 (≈ 500 µM) | 128 (≈ 250 µM) | 512 (≈ 999 µM) | 512 (≈ 999 µM) | 512 (≈ 999 µM) | 1020 (≈ 2000 µM) | 512 (≈ 999 µM) | Nc1ccc(-c2nn3c(-c4ccc(S(=O)(=O)c5ccc(Br)cc5)cc4)nnc3s2)cc1
5 | 128 (≈ 216 µM) | 512 (≈ 866 µM) | 512 (≈ 866 µM) | 128 (≈ 216 µM) | 1020 (≈ 1730 µM) | 512 (≈ 866 µM) | 512 (≈ 866 µM) | 1020 (≈ 1730 µM) | 512 (≈ 866 µM) | 128 (≈ 216 µM) | O=S(=O)(c1ccc(Br)cc1)c1ccc(-c2nnc3sc(Nc4ccc(Br)cc4)nn23)cc1
6 | 64 (≈ 146 µM) | 256 (≈ 585 µM) | 256 (≈ 585 µM) | 256 (≈ 585 µM) | 1020 (≈ 2340 µM) | 256 (≈ 585 µM) | 128 (≈ 293 µM) | 256 (≈ 585 µM) | 256 (≈ 585 µM) | 256 (≈ 585 µM) | O=S(=O)(c1ccc(Br)cc1)c1ccc(-c2nnc3sc(O)nn23)cc1
7 | 64 (≈ 138 µM) | 256 (≈ 552 µM) | 1020 (≈ 2210 µM) | 256 (≈ 552 µM) | 256 (≈ 552 µM) | 256 (≈ 552 µM) | 128 (≈ 276 µM) | 256 (≈ 552 µM) | 128 (≈ 276 µM) | 256 (≈ 552 µM) | COc1ccc(Nc2nn3c(-c4ccc(S(=O)(=O)c5ccccc5)cc4)nnc3s2)cc1
8 | 128 (≈ 236 µM) | 256 (≈ 472 µM) | 512 (≈ 944 µM) | 256 (≈ 472 µM) | 1020 (≈ 1890 µM) | 256 (≈ 472 µM) | 128 (≈ 236 µM) | 256 (≈ 472 µM) | 128 (≈ 236 µM) | 128 (≈ 236 µM) | COc1ccc(Nc2nn3c(-c4ccc(S(=O)(=O)c5ccc(Br)cc5)cc4)nnc3s2)cc1
9 | 512 (≈ 1140 µM) | 512 (≈ 1140 µM) | 512 (≈ 1140 µM) | 256 (≈ 572 µM) | 1020 (≈ 2290 µM) | 256 (≈ 572 µM) | 512 (≈ 1140 µM) | 1020 (≈ 2290 µM) | 1020 (≈ 2290 µM) | 512 (≈ 1140 µM) | NCc1ccc(-c2nn3c(-c4ccc(S(=O)(=O)c5ccccc5)cc4)nnc3s2)cc1
10 | 128 (≈ 241 µM) | 512 (≈ 963 µM) | 256 (≈ 481 µM) | 128 (≈ 241 µM) | 256 (≈ 481 µM) | 128 (≈ 241 µM) | 128 (≈ 241 µM) | 1020 (≈ 1930 µM) | 256 (≈ 481 µM) | 512 (≈ 963 µM) | O=S(=O)(c1ccccc1)c1ccc(-c2nnc3sc(-c4ccc(Cl)c(Br)c4)nn23)cc1
11 | 512 (≈ 1140 µM) | 512 (≈ 1140 µM) | 256 (≈ 571 µM) | 512 (≈ 1140 µM) | 512 (≈ 1140 µM) | 256 (≈ 571 µM) | 512 (≈ 1140 µM) | 512 (≈ 1140 µM) | 512 (≈ 1140 µM) | 512 (≈ 1140 µM) | COc1ccc(-c2nn3c(-c4ccc(S(=O)(=O)c5ccccc5)cc4)nnc3s2)cc1
12 | 128 (≈ 222 µM) | 256 (≈ 444 µM) | 256 (≈ 444 µM) | 256 (≈ 444 µM) | 1020 (≈ 1780 µM) | 256 (≈ 444 µM) | 64 (≈ 111 µM) | 128 (≈ 222 µM) | 256 (≈ 444 µM) | 128 (≈ 222 µM) | O=S(=O)(c1ccc(Br)cc1)c1ccc(-c2nnc3sc(-c4ccc(Br)cc4)nn23)cc1
13 | 512 (≈ 973 µM) | 512 (≈ 973 µM) | 512 (≈ 973 µM) | 256 (≈ 486 µM) | 1020 (≈ 1950 µM) | 512 (≈ 973 µM) | 1020 (≈ 1950 µM) | 1020 (≈ 1950 µM) | 1020 (≈ 1950 µM) | 128 (≈ 243 µM) | Cc1ccc(Nc2nn3c(-c4ccc(S(=O)(=O)c5ccc(Br)cc5)cc4)nnc3s2)cc1
14 | 512 (≈ 1140 µM) | 512 (≈ 1140 µM) | 1020 (≈ 2290 µM) | 256 (≈ 572 µM) | 1020 (≈ 2290 µM) | 512 (≈ 1140 µM) | 512 (≈ 1140 µM) | 1020 (≈ 2290 µM) | 128 (≈ 286 µM) | 256 (≈ 572 µM) | Cc1ccc(Nc2nn3c(-c4ccc(S(=O)(=O)c5ccccc5)cc4)nnc3s2)cc1
15 | 128 (≈ 357 µM) | 256 (≈ 714 µM) | 256 (≈ 714 µM) | 256 (≈ 714 µM) | 1020 (≈ 2860 µM) | 512 (≈ 1430 µM) | 512 (≈ 1430 µM) | 512 (≈ 1430 µM) | 128 (≈ 357 µM) | 256 (≈ 714 µM) | O=S(=O)(c1ccccc1)c1ccc(-c2nnc3sc(O)nn23)cc1
16 | 32 (≈ 52.4 µM) | 256 (≈ 419 µM) | 64 (≈ 105 µM) | 64 (≈ 105 µM) | 128 (≈ 210 µM) | 32 (≈ 52.4 µM) | 32 (≈ 52.4 µM) | 1020 (≈ 1680 µM) | 512 (≈ 838 µM) | 256 (≈ 419 µM) | O=S(=O)(c1ccc(Br)cc1)c1ccc(-c2nnc3sc(-c4ccc(Cl)c(Br)c4)nn23)cc1
17 | < 2 | – | < 2 | – | < 2 | – | < 2 | – | – | – | CC1(C)S[C@@H]2[C@H](NC(=O)[C@H](N)c3ccccc3)C(=O)N2[C@H]1C(=O)O [AMPICILLIN]
18 | 128 (≈ 295 µM) | 256 (≈ 591 µM) | 512 (≈ 1180 µM) | 256 (≈ 591 µM) | 256 (≈ 591 µM) | 256 (≈ 591 µM) | 64 (≈ 148 µM) | 256 (≈ 591 µM) | 128 (≈ 295 µM) | 256 (≈ 591 µM) | Nc1ccc(-c2nn3c(-c4ccc(S(=O)(=O)c5ccccc5)cc4)nnc3s2)cc1
19 | 1020 (≈ 2060 µM) | 512 (≈ 1030 µM) | 512 (≈ 1030 µM) | 512 (≈ 1030 µM) | 1020 (≈ 2060 µM) | 512 (≈ 1030 µM) | 1020 (≈ 2060 µM) | 1020 (≈ 2060 µM) | 1020 (≈ 2060 µM) | 1020 (≈ 2060 µM) | O=S(=O)(c1ccccc1)c1ccc(-c2nnc3sc(-c4ccc(Br)cc4)nn23)cc1
20 | 512 (≈ 1130 µM) | 512 (≈ 1130 µM) | 256 (≈ 565 µM) | 512 (≈ 1130 µM) | 1020 (≈ 2260 µM) | 512 (≈ 1130 µM) | 512 (≈ 1130 µM) | 512 (≈ 1130 µM) | 512 (≈ 1130 µM) | 512 (≈ 1130 µM) | O=S(=O)(c1ccccc1)c1ccc(-c2nnc3sc(-c4ccc(Cl)cc4)nn23)cc1
21 | 512 (≈ 971 µM) | 1020 (≈ 1940 µM) | 128 (≈ 243 µM) | 256 (≈ 485 µM) | 256 (≈ 485 µM) | 512 (≈ 971 µM) | 512 (≈ 971 µM) | 512 (≈ 971 µM) | 256 (≈ 485 µM) | 512 (≈ 971 µM) | COc1ccc(-c2nn3c(-c4ccc(S(=O)(=O)c5ccc(Br)cc5)cc4)nnc3s2)cc1
22 | 32 (≈ 68.6 µM) | 512 (≈ 1100 µM) | 512 (≈ 1100 µM) | 256 (≈ 549 µM) | 256 (≈ 549 µM) | 128 (≈ 274 µM) | 512 (≈ 1100 µM) | 1020 (≈ 2200 µM) | 1020 (≈ 2200 µM) | 512 (≈ 1100 µM) | O=S(=O)(c1ccccc1)c1ccc(-c2nnc3sc(-c4cc(O)c(O)c(O)c4)nn23)cc1
23 | 64 (≈ 117 µM) | 256 (≈ 469 µM) | 256 (≈ 469 µM) | 128 (≈ 235 µM) | 256 (≈ 469 µM) | 128 (≈ 235 µM) | 128 (≈ 235 µM) | 128 (≈ 235 µM) | 128 (≈ 235 µM) | 512 (≈ 939 µM) | O=S(=O)(c1ccc(Br)cc1)c1ccc(-c2nnc3sc(-c4cc(O)c(O)c(O)c4)nn23)cc1

Row | SMILES | MIC (Enterococcus faecalis) [µg/mL] | MIC (Enterobacter cloacae) [µg/mL] | MIC (Staphylococcus aureus) [µg/mL] | MIC (Escherichia coli) [µg/mL] | MIC (Bacillus cereus) [µg/mL] | MIC (Pseudomonas aeruginosa) [µg/mL] | MIC [1] [µg/mL] | MIC (Citrobacter freundii) [µg/mL] | MIC (Acinetobacter baumannii) [µg/mL] | MIC (Candida albicans) [µg/mL]
24 | C[C@H]1[C@H](NC(=O)/C(=N\OC(C)(C)C(=O)O)c2csc(N)n2)C(=O)N1S(=O)(=O)O [AZTREONAM] | – | – | – | < 2 | – | 4 (≈ 9.19 µM) | – | < 2 | < 2 | –
25 | C[C@@H]1[C@H](O)[C@@H](C)/C=C/C=C/C=C/C=C/C=C/C=C/C=C/[C@H](O[C@@H]2O[C@H](C)[C@@H](O)[C@H](N)[C@@H]2O)C[C@@H]2O[C@](O)(C[C@@H](O)C[C@@H](O)[C@H](O)CC[C@@H](O)C[C@@H](O)CC(=O)O[C@H]1C)C[C@H](O)[C@H]2C(=O)O [AMPHOTERICIN B] | – | – | – | – | – | – | – | – | – | 2 (≈ 2.16 µM)
